According to ChEMBL document CHEMBL1909046, “DrugMatrix in vitro pharmacology data”:

Legend:
Substance-P receptor = Substance-P receptor (Homo sapiens, UniProt P25103); type: cell membranes, CHO, Membrane; conditions: cho; also: in other assays of this panel Not Active means under 50% inhibition at 10 µM
Insulin receptor = Insulin receptor (Rattus norvegicus, UniProt P15127); type: cell membranes, Wistar, Liver, Membrane; also: in other assays of this panel Not Active means under 50% inhibition at 10 µM
[1] = molecular target: Protein kinase C alpha type (Homo sapiens, UniProt P17252); type: cell-based; conditions: sf9;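 also: inhibition of PKCalpha kinase activity measured in an enzyme assay with histone as the phosphorylation substrate; in other assays of this panel Not Active means under 50% inhibition at 10 µM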
[2] = molecular target: T1, Muscarinic acetylcholine receptor M2 (Homo sapiens, UniProt P08172); type: cell membranes, CHO-K1, Membrane; also: in other assays of this panel Not Active means under 50% inhibition at 10 µM
T1 sequence (P08172 whole entry): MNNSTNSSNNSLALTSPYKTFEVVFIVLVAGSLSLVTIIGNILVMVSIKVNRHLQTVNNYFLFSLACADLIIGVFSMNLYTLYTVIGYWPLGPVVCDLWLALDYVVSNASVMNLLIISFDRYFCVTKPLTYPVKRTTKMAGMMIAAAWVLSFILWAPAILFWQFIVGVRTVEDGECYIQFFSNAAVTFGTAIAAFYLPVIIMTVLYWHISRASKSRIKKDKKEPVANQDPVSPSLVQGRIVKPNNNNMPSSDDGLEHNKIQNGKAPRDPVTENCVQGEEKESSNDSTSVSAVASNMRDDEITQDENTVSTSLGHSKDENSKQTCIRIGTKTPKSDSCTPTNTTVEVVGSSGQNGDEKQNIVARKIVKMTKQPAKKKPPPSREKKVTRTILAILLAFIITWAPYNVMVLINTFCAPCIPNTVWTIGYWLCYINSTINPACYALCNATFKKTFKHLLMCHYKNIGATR

[3] = molecular target: Matrix metalloproteinase-9 (Homo sapiens, UniProt P14780); type: cell-based
[4] = molecular target: T2, 3-hydroxy-3-methylglutaryl-coenzyme A reductase (Homo sapiens, UniProt P04035); parameters: species or system Escherichia coli
T2 sequence (P04035 whole entry): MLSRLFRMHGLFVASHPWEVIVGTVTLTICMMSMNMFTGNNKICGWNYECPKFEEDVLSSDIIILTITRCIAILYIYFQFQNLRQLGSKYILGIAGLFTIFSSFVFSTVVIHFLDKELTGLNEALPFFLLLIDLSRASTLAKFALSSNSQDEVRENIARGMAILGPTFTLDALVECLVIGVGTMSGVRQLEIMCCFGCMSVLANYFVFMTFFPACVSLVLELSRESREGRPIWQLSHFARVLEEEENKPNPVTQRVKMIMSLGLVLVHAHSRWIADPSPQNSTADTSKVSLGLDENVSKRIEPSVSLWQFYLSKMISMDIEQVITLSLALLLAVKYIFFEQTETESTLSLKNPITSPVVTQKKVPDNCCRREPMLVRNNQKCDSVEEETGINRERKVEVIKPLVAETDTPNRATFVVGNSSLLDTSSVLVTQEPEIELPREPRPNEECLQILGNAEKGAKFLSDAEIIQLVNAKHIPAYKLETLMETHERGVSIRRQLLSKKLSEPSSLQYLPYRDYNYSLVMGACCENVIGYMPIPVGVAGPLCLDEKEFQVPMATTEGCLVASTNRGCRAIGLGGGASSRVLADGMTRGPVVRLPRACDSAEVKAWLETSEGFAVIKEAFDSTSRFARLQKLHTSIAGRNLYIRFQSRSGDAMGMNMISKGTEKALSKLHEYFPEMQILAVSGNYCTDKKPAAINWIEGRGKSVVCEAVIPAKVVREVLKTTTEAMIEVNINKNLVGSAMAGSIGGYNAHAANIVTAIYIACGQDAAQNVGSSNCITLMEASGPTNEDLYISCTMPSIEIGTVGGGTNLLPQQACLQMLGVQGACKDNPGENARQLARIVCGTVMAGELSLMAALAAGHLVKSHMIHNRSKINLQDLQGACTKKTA

[5] = DRUGMATRIX: Tumor Necrosis Factor (TNF), Non-Selective radioligand binding (ligand: [125I] TNF-alpha); type: cell membranes, Membrane; conditions: u-937; Not Active = under 50% inhibition at 10 µM
[6] = DRUGMATRIX: Glutamate, Kainate radioligand binding (ligand: [3H] Kainic acid); type: cell membranes, Rattus norvegicus, Wistar, Brain, Membrane; conditions: Not Active = under 50% inhibition at 10 µM
Caspase-1 = molecular target: T3, Caspase-1 (Homo sapiens, UniProt P29466); parameters: species or system Escherichia coli
T3 sequence (P29466 whole entry): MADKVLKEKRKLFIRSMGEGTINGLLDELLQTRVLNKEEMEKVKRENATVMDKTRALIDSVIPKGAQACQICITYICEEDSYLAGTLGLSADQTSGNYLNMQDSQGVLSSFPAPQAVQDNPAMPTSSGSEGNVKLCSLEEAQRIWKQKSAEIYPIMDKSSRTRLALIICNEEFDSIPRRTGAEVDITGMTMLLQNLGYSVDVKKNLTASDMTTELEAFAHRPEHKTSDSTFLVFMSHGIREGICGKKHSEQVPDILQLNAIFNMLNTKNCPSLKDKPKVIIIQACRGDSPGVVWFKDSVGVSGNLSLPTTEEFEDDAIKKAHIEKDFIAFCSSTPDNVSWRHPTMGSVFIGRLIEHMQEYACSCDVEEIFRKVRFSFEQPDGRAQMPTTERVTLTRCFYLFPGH

Sequence of Substance-P receptor (P25103 whole entry): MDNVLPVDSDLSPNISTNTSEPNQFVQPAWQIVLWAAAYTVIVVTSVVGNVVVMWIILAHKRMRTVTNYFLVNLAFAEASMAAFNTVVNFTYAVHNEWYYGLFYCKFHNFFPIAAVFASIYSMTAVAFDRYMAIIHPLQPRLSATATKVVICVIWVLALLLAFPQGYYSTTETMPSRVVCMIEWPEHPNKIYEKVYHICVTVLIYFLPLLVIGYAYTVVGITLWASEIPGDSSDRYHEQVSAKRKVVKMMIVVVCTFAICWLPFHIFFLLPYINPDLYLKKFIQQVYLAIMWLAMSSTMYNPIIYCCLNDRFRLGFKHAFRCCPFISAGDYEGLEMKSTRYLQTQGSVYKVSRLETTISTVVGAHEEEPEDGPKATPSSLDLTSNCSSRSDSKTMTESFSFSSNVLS
Sequence of Insulin receptor (P15127 27-759 limits assumed): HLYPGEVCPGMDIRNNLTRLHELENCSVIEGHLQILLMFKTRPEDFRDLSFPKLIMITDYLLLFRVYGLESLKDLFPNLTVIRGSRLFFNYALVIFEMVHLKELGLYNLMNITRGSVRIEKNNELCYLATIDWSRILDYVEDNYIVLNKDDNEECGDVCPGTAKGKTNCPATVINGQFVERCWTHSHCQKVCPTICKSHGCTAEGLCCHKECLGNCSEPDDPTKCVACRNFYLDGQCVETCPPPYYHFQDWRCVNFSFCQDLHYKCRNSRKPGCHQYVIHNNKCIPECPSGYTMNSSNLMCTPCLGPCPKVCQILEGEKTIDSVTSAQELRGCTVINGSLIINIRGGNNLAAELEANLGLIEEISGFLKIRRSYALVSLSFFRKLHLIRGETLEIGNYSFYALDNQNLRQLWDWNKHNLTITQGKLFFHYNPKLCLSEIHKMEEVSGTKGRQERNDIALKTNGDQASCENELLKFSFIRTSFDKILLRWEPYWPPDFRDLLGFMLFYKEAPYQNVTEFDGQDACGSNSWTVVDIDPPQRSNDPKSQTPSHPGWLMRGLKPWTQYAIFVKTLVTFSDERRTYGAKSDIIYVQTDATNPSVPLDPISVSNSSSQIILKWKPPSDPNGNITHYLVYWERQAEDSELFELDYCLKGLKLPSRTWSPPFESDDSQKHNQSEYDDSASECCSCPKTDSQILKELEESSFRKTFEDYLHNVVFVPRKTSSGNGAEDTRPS
Sequence of Insulin receptor (P15127 764-1383 limits assumed): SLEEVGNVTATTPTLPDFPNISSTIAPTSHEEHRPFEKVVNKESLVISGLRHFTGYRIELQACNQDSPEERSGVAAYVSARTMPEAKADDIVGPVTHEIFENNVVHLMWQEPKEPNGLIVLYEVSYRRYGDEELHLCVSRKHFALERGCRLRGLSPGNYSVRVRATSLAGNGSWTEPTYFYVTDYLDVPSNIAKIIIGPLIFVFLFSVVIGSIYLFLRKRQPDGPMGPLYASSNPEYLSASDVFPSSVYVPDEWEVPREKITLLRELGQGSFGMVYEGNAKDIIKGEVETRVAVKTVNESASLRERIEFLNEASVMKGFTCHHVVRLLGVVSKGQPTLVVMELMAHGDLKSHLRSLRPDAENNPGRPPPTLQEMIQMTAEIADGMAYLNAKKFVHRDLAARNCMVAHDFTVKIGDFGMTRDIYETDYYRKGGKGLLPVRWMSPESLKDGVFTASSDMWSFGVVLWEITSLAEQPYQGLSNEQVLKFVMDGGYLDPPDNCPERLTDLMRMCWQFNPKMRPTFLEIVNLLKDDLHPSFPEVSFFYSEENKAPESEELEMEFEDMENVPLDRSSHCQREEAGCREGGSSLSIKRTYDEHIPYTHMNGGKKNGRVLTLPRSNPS
Sequence of Matrix metalloproteinase-9 (P14780 whole entry): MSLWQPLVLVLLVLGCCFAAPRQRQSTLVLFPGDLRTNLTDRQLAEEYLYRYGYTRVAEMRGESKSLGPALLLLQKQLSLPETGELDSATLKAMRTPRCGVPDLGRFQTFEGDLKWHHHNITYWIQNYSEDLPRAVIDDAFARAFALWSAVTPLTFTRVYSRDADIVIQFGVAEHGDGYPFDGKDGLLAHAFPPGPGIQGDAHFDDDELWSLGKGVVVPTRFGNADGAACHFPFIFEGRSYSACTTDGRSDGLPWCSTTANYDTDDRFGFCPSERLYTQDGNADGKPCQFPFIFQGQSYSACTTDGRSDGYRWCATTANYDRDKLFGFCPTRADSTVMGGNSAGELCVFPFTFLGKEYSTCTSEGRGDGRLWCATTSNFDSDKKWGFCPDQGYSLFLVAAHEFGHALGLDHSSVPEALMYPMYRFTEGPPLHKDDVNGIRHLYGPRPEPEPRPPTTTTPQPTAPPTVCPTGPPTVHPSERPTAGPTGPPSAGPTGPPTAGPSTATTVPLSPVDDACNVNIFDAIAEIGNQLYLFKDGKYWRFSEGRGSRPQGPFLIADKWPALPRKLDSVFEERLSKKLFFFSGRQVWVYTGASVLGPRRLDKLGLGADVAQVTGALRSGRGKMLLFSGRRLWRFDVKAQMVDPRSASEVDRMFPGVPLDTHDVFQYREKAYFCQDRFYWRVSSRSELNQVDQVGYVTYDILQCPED

Structure (SMILES) | IC50 (Substance-P receptor) | IC50 (Insulin receptor) | IC50 [1] | IC50 ([2]; cho-k1) | IC50 [3] | IC50 [4] | IC50 [5] | Ki [5] | IC50 [6] | Ki [6] | IC50 (Caspase-1) | IC50 ([2]; read-out: IC50) | Ki ([2]; read-out: Ki)
C[C@H]1COc2c(N3CCN(C)CC3)c(F)cc3c(=O)c(C(=O)O)cn1c23.C[C@H]1COc2c(N3CCN(C)CC3)c(F)cc3c(=O)c(C(=O)O)cn1c23.O [LEVOFLOXACIN] | Not Active | Not Active | Not Active | Not Active | Not Active | Not Active | Not Active | Not Active | Not Active | Not Active | Not Active | – | –
CCn1cc(C(=O)O)c(=O)c2cc(F)c(N3CCNC(C)C3)c(F)c21 (centres undefined) [LOMEFLOXACIN] | Not Active | Not Active | Not Active | Not Active | Not Active | Not Active | Not Active | Not Active | Not Active | Not Active | Not Active | – | –
CN1CCCC(CN2c3ccccc3Sc3ccccc32)C1 (centres undefined) [MEPAZINE] | Not Active | Not Active | Not Active | – | Not Active | Not Active | Not Active | Not Active | Not Active | Not Active | Not Active | 565 nM | 201 nM
Cc1cccc(C)c1NC(=O)C1CCCCN1C (centres undefined) [MEPIVACAINE] | Not Active | Not Active | Not Active | Not Active | Not Active | Not Active | Not Active | Not Active | Not Active | Not Active | Not Active | – | –
CN(C)C(=N)NC(=N)N [METFORMIN] | Not Active | Not Active | Not Active | Not Active | Not Active | Not Active | Not Active | Not Active | Not Active | Not Active | Not Active | – | –
CC(C)(C)NCC(O)COc1cccc2c1CC(O)C(O)C2 (centres undefined) [NADOLOL] | Not Active | Not Active | Not Active | Not Active | Not Active | Not Active | Not Active | Not Active | Not Active | Not Active | Not Active | – | –
C[C@]12CC[C@H]3[C@@H](CCC4=CC(=O)CC[C@@H]43)[C@@H]1CC[C@@H]2O [NANDROLONE] | Not Active | Not Active | Not Active | Not Active | Not Active | Not Active | Not Active | Not Active | Not Active | Not Active | Not Active | – | –
C[C@@H]1C/C=C/C=C/C=C/C=C/[C@H](O[C@@H]2O[C@H](C)[C@@H](O)[C@H](N)[C@@H]2O)C[C@@H]2O[C@](O)(C[C@@H](O)C[C@H]3O[C@@H]3/C=C/C(=O)O1)C[C@H](O)[C@H]2C(=O)O [NATAMYCIN] | Not Active | Not Active | Not Active | Not Active | Not Active | Not Active | Not Active | Not Active | Not Active | Not Active | Not Active | – | –
CN(C)C(=O)Oc1cccc([N+](C)(C)C)c1.[Br-] [NEOSTIGMINE BROMIDE] | Not Active | Not Active | Not Active | Not Active | Not Active | Not Active | Not Active | Not Active | Not Active | Not Active | Not Active | – | –
NC(=O)c1cccnc1 [NIACINAMIDE] | Not Active | Not Active | Not Active | Not Active | Not Active | Not Active | Not Active | Not Active | Not Active | Not Active | Not Active | – | –
CS(=O)(=O)Nc1ccc([N+](=O)[O-])cc1Oc1ccccc1 [NIMESULIDE] | Not Active | Not Active | Not Active | Not Active | Not Active | Not Active | Not Active | Not Active | Not Active | Not Active | Not Active | – | –
CN1C(=O)CN=C(c2ccccc2)c2cc([N+](=O)[O-])ccc21 [NIMETAZEPAM] | Not Active | Not Active | Not Active | Not Active | Not Active | Not Active | Not Active | Not Active | Not Active | Not Active | Not Active | – | –
COc1ccc2c(c1OC)C(=O)O[C@@H]2[C@H]1c2c(cc3c(c2OC)OCO3)CCN1C [NOSCAPINE] | Not Active | Not Active | Not Active | Not Active | Not Active | Not Active | Not Active | Not Active | Not Active | Not Active | Not Active | – | –
C[C@@H]1O[C@@H](O[C@H]2C[C@@H](O)[C@]3(CO)[C@H]4[C@H](O)C[C@]5(C)[C@@H](C6=CC(=O)OC6)CC[C@]5(O)[C@@H]4CC[C@]3(O)C2)[C@H](O)[C@H](O)[C@H]1O [OUABAIN] | Not Active | Not Active | Not Active | Not Active | Not Active | Not Active | Not Active | Not Active | Not Active | Not Active | Not Active | – | –
NC(=O)N1c2ccccc2CC(=O)c2ccccc21 [OXCARBAZEPINE] | Not Active | Not Active | Not Active | Not Active | Not Active | Not Active | Not Active | Not Active | Not Active | Not Active | Not Active | – | –
COc1ccnc(C[S+]([O-])c2nc3ccc(OC(F)F)cc3[nH]2)c1OC (centres undefined) [PANTOPRAZOLE] | Not Active | Not Active | Not Active | Not Active | Not Active | Not Active | Not Active | Not Active | Not Active | Not Active | Not Active | – | –
NNCCc1ccccc1 [PHENELZINE] | Not Active | Not Active | Not Active | Not Active | Not Active | Not Active | Not Active | Not Active | Not Active | Not Active | Not Active | – | –
CCc1ccc(CCOc2ccc(CC3SC(=O)NC3=O)cc2)nc1 (centres undefined) [PIOGLITAZONE] | Not Active | Not Active | Not Active | Not Active | Not Active | Not Active | Not Active | Not Active | Not Active | Not Active | Not Active | – | –
